# Reference: the METLIN SMRT retention time set (Domingo-Almenara et al. 2019)
# Experiment: gradient 5% acetonitrile 3 min, to 50% in 2 min, to 85% in 15 min, held 3 min, 100 µL/min
# Conditions: column: Zorbax Extend-C18 2.1 x 50 mm; eluents: water / acetonitrile, 0.1% formic acid
# In short: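 Values are retention times taken from adduct peaks that software picked and an analyst inspected. The pure standards were run as mixtures of ~100 molecules on HPLC linked to a quadrupole time-of-flight mass spectrometer, in positive and negative ionization mode. A Zorbax Extend-C18 column (2.1 × 50 mm, 1.8 μm) was used at 100 μL/min with water and acetonitrile, each including 0.1% formic acid.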
row,SMILES,RP-LC retention time [s]
1,CNC(=O)C1CCCN(c2nc3ncn(CC(=O)NCc4ccccc4)c(=O)c3s2)C1 (stereo not drawn),620
2,Cc1nnc2ccc(N3CCC(C(=O)NC(C)CCc4ccccc4)CC3)nn12 (stereo not drawn),779
3,Cc1ccc(CN2CCN(CC(=O)Nc3ccc4c(c3)OCO4)C(=O)C2=O)cc1,742
4,CCn1cc(-c2nc(C(=O)Nc3ccc(F)cc3C)cs2)c2cccnc21,1000
5,COc1ccc(-c2noc(-c3nc(Cc4ccccc4)no3)n2)cc1,1170
6,CC1=NS(=O)(=O)N(C)C=C1C(=O)OCc1nc(Cc2ccccc2C)no1,987
7,CCN(CC)C(=O)CCC1CCCN(c2cc(NC3CC3)ncn2)C1 (stereo not drawn),643
8,CCOc1ccccc1NC(=O)C1(C)Oc2cccnc2NC1=O (stereo not drawn),776
9,Cc1cc(C)c(NC(=O)Cn2nc3c(N(C)C4CCCCC4)nccn3c2=O)c(C)c1,797
10,CCn1c(=O)c(N2CCCC(C(=O)N3CCN(c4ccc(OC)cc4)CC3)C2)nc2ccccc21 (stereo not drawn),987
11,COc1cc(C(=O)N2CCN(c3cc(N(C)C)nc(C)n3)CC2)cc(OC)c1OC,599
12,COc1ccc(-c2nc(NCc3ccc(C)o3)c3ccccc3n2)cc1,784
13,CCCNc1cc(N2CCCC(CCC(=O)NCc3cccc(F)c3)C2)ncn1 (stereo not drawn),696
14,CCn1c(=O)c(N2CCC(C(=O)NCCc3c[nH]c4ccc(C)cc34)CC2)nc2cccnc21,984
15,CN1C(=O)c2cccn2CC1C(=O)NCc1ccc2c(c1)OCO2 (stereo not drawn),657
16,CC1CCc2nn(CC(=O)NCCN3CCCCCC3)cc2C1 (stereo not drawn),605
17,CCCCN1CCN(C(=O)C2CCN(c3nnc(-c4ccc(C)cc4)o3)CC2)CC1,632
18,Cc1cc(=O)n(CC(=O)Nc2ccc(Cl)cc2)c(-c2ccccc2)n1,1080
19,CN1C(=O)c2cc(C(=O)N3CCCC3)nn2CC1(C)C(=O)NCc1ccc(F)cc1 (stereo not drawn),626
20,COc1ccc(NC(=O)N2C[C@@H](F)C[C@H]2C(=O)N2CCCCC2)c(OC)c1,687
21,O=C(NCCc1nc2cccnc2n1-c1ccccc1)c1ccsc1,674
22,O=C(c1ccoc1)N1CCC(F)(C(=O)NC2CC2)CC1,569
23,CCN1CCN(CC(=O)NCc2ccccc2)C(=O)C1=O,570

row,SMILES,RP-LC retention time [s]
1,CN(C)S(=O)(=O)c1ccc2c(c1)N(CC(=O)NCc1ccc(Cl)cc1)C(=O)C1CCCCN21 (stereo not drawn),932
2,CCNC(=O)Nc1ccc2c(c1)CN(S(=O)(=O)Cc1ccccc1)CCO2,754
3,CCOC(=O)c1ncoc1-c1ccccc1C(=O)NC(C)C,676
4,CCN1CCC(N(Cc2cccs2)C(=O)Nc2ccccc2C)CC1,646
5,COc1ccc(C(=O)NCc2ccc3c(c2)OCO3)nn1,654
6,Cc1c(CC(=O)NC(C)C)c(=O)n2nc(-c3ccccc3)nc2n1C,673
7,CCCc1nnc(NC(=O)C2CC(=O)N(CCc3c[nH]c4ccc(Cl)cc34)C2)s1 (stereo not drawn),764
8,O=C(Cc1ccccc1Cl)NCCCn1cccc1,773
9,CC(C)S(=O)(=O)c1ccc(Cc2nnc(NC(=O)c3ccc4ncsc4c3)o2)cc1,641
10,COc1ccc(NC(=O)N2[C@H]3CC[C@@H]2c2cncnc2C3)c(OC)c1,639
11,N#Cc1ccc(C(=O)N2CCCC(COc3ccc(C(=O)NC4CC4)cc3)C2)cc1 (stereo not drawn),757
12,COc1ccccc1C1(CNC(=O)c2ccco2)CCOCC1,709
13,Cn1cc(OCc2ccccc2)c(=O)cc1C(=O)N1CCN(c2ccccn2)CC1,538
14,CCCc1cc(=O)n(CC(=O)Nc2ccc(C)cc2Cl)c(-c2ccc(Cl)cc2)n1,1080
15,Cc1ccc(NC(=O)COc2cc(C(F)(F)F)c3c(C)nn(C)c3n2)c(C)c1,1060
16,CCN1CCN(C(=O)c2cc3c(=O)n(Cc4ccco4)ccc3nc2C)CC1,664
17,CCN(CC)S(=O)(=O)c1ccc2c(c1)cc(C(=O)NCCCN1CCCCC1C)n2C (stereo not drawn),679
18,CC1=NS(=O)(=O)N(C)C=C1C(=O)OCc1nc(-c2ccc(C(F)(F)F)cc2)no1,1060
19,COC(=O)c1c2c(nc3ccccc13)CCN(C(=O)Nc1cc(OC)ccc1OC)C2,839
20,CCC(C)C(NC(=O)c1cccc(C)c1)C(=O)Nc1nc2ccccc2[nH]1 (stereo not drawn),765
21,O=C(C1CCN(c2nc3ccc(-c4ccccc4)nc3s2)CC1)N1CCCCC1,1040
22,Cc1noc(C)c1CNC(=O)c1ccc2nc[nH]c2c1,561
23,CC(C)Cn1cc(CCNC(=O)Nc2ccc(Br)cc2)c2cccnc21,932

row,SMILES,RP-LC retention time [s]
1,CCOc1ccc(-c2n[nH]c3c2C(c2ccc(O)c(OC)c2)NC3=O)cc1 (stereo not drawn),637
2,CCOc1ccc(NS(=O)(=O)c2cc(C(=O)N3CCN(c4ccccc4F)CC3)n[nH]2)cc1,922
3,CCn1cc(CCNC(=O)Nc2ccc(Br)cc2)c2cccnc21,802
4,CCCS(=O)(=O)N1CCC(CCOC)(NC(=O)C2CC2)CC1,686
5,Fc1ccccc1-c1ccc(CNCc2cccs2)o1,706
6,Cc1ncn(CC(=O)Nc2cccc(Cl)c2)c(=O)c1C,705
7,CCCNC(=O)C1CC(=O)N(c2n[nH]c3cccc(F)c23)C1 (stereo not drawn),626
8,Cc1ccc(CNC(=O)C2(C)CN(S(C)(=O)=O)CC(=O)N2c2cc(C)cc(C)c2)cc1 (stereo not drawn),860
9,CC(NC(=O)C1CCN(C(=O)N2CCOc3ccc(Cl)cc32)CC1)c1ccccc1 (stereo not drawn),906
10,Cc1cccc(NC(=O)C2CCN(S(=O)(=O)c3cc(C(=O)N(C)C)cs3)CC2)c1C,790
11,CCC(C(=O)NCc1ccccc1)n1cnc2nc3c(cc2c1=O)CCCC3 (stereo not drawn),774
12,Cc1cccc(-c2nc(-c3ccc4c(c3)ncn4CCN3CCCC3)no2)c1,676
13,COC(=O)Cn1c(C)cc(=O)n2nc(-c3ccccc3Cl)nc12,729
14,O=C(NCCCN1CCCC1=O)c1ccc2ncnc(N3CCCC3)c2c1,570
15,N#Cc1ccc(C(=O)Nc2nnc(CSc3ccccc3)o2)cc1,749
16,CCn1cc(CCNC(=O)Nc2cccc(Cl)c2C)c2cccnc21,761
17,Cc1ccc(/C=C/S(=O)(=O)N2CC(c3nc(-c4cccs4)no3)C2)cc1,996
18,CCn1cc(-c2nc(CC(=O)NCc3ccccc3)cs2)c2cccnc21,840
19,CCc1nc(-c2csc(S(=O)(=O)N3CCC(C(=O)N4CCc5ccccc5C4)CC3)c2)no1,1020
20,O=C(c1ccc(-n2cnnn2)cc1)N1CCCc2ccccc21,734
21,CCOc1ccccc1CNC(=O)Cc1cn(C)c2ncccc12,739
22,CN(C)c1nccnc1OC1CCN(C(=O)c2ccnn2C)C1 (stereo not drawn),634
